According to PubChem BioAssay (NCI):
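Cultured in 96-well plates, cells were exposed to test compound for 48 hours across five concentrations. The concentration for 50% growth inhibition is given as GI50. TGI denotes the concentration required for complete inhibition of growth.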

Legend:
Test in all cases: inhibition of tumour cell growth, NCI panel, 48 h
NCI-H23 lung = tested on: NCI-H23 lung
SF-295 CNS = tested on: SF-295 CNS
NCI/ADR-RES ovarian = tested on: NCI/ADR-RES ovarian
BT-549 breast = tested on: BT-549 breast
SNB-19 CNS = tested on: SNB-19 CNS
OVCAR-3 ovarian = tested on: OVCAR-3 ovarian
KM12 colon = tested on: KM12 colon
SF-268 CNS = tested on: SF-268 CNS
K-562 leukemia = tested on: K-562 leukemia
HOP-92 NSCLC = tested on: HOP-92 NSCLC
MDA-MB-435 = tested on: MDA-MB-435
SK-MEL-28 melanoma = tested on: SK-MEL-28 melanoma
U251 CNS = tested on: U251 CNS
COLO 205 colon = tested on: COLO 205 colon
OVCAR-8 ovarian = tested on: OVCAR-8 ovarian
MDA-MB-231 breast = tested on: MDA-MB-231 breast
SNB-75 CNS = tested on: SNB-75 CNS
SK-OV-3 ovarian = tested on: SK-OV-3 ovarian
SN12C renal = tested on: SN12C renal
NCI-H460 lung = tested on: NCI-H460 lung
T-47D breast = tested on: T-47D breast
HS 578T breast = tested on: HS 578T breast
HCT-15 colon = tested on: HCT-15 colon
HCT-116 colon = tested on: HCT-116 colon
SK-MEL-5 melanoma = tested on: SK-MEL-5 melanoma
MALME-3M melanoma = tested on: MALME-3M melanoma
M14 melanoma = tested on: M14 melanoma
OVCAR-5 ovarian = tested on: OVCAR-5 ovarian
CCRF-CEM leukemia = tested on: CCRF-CEM leukemia
TK-10 renal = tested on: TK-10 renal
HCC-2998 colon = tested on: HCC-2998 colon
OVCAR-4 ovarian = tested on: OVCAR-4 ovarian
CAKI-1 renal = tested on: CAKI-1 renal
SF-539 CNS = tested on: SF-539 CNS
UO-31 renal = tested on: UO-31 renal
NCI-H226 lung = tested on: NCI-H226 lung
SR leukemia = tested on: SR leukemia
SW-620 colon = tested on: SW-620 colon
IGROV1 ovarian = tested on: IGROV1 ovarian
HT29 colon = tested on: HT29 colon
RPMI-8226 leukemia = tested on: RPMI-8226 leukemia
NCI-H522 lung = tested on: NCI-H522 lung
RXF 393 renal = tested on: RXF 393 renal
DU-145 prostate = tested on: DU-145 prostate
UACC-62 melanoma = tested on: UACC-62 melanoma
HL-60(TB) leukemia = tested on: HL-60(TB) leukemia
MCF7 breast = tested on: MCF7 breast
HOP-62 NSCLC = tested on: HOP-62 NSCLC
UACC-257 melanoma = tested on: UACC-257 melanoma
A549 NSCLC = tested on: A549 NSCLC
SK-MEL-2 melanoma = tested on: SK-MEL-2 melanoma
786-0 renal = tested on: 786-0 renal
MOLT-4 leukemia = tested on: MOLT-4 leukemia
ACHN renal = tested on: ACHN renal
LOX IMVI melanoma = tested on: LOX IMVI melanoma
PC-3 prostate = tested on: PC-3 prostate
A498 renal = tested on: A498 renal

With CCn1c(=O)c(Oc2ccc(F)cc2F)cc2cnc(NC3CCOCC3)nc21 the GI50 (NCI-H23 lung) was over 25 µM, the TGI (NCI-H23 lung) was over 25 µM and the GI50 (SF-295 CNS) was over 25 µM. The TGI (SF-295 CNS) was over 25 µM, the GI50 (NCI/ADR-RES ovarian) was over 25 µM and the TGI (NCI/ADR-RES ovarian) was over 25 µM. For the same molecule, the GI50 (BT-549 breast) was over 25 µM, the TGI (BT-549 breast) was over 25 µM and the GI50 (SNB-19 CNS) was over 25 µM. The TGI (SNB-19 CNS) was over 25 µM, the GI50 (OVCAR-3 ovarian) was over 25 µM and the TGI (OVCAR-3 ovarian) was over 25 µM. The GI50 (KM12 colon) was over 25 µM, the TGI (KM12 colon) was over 25 µM and the GI50 (SF-268 CNS) was over 25 µM. For the same molecule, the TGI (SF-268 CNS) was over 25 µM, the GI50 (K-562 leukemia) was over 25 µM and the TGI (K-562 leukemia) was over 25 µM. For the same molecule, the GI50 (HOP-92 NSCLC) was 3.19 µM, the TGI (HOP-92 NSCLC) was over 25 µM and the GI50 (MDA-MB-435) was over 25 µM. The TGI (MDA-MB-435) was over 25 µM, the GI50 (SK-MEL-28 melanoma) was over 25 µM and the TGI (SK-MEL-28 melanoma) was over 25 µM. For the same molecule, the GI50 (U251 CNS) was over 25 µM, the TGI (U251 CNS) was over 25 µM and the GI50 (COLO 205 colon) was over 25 µM. It also gave a TGI (COLO 205 colon) of over 25 µM, a GI50 (OVCAR-8 ovarian) of over 25 µM and a TGI (OVCAR-8 ovarian) of over 25 µM. For the same molecule, the GI50 (MDA-MB-231 breast) was over 25 µM, the TGI (MDA-MB-231 breast) was over 25 µM and the GI50 (SNB-75 CNS) was over 25 µM. It also gave a TGI (SNB-75 CNS) of over 25 µM, a GI50 (SK-OV-3 ovarian) of over 25 µM and a TGI (SK-OV-3 ovarian) of over 25 µM. For the same molecule, the GI50 (SN12C renal) was over 25 µM, the TGI (SN12C renal) was over 25 µM and the GI50 (NCI-H460 lung) was over 25 µM. For the same molecule, the TGI (NCI-H460 lung) was over 25 µM, the GI50 (T-47D breast) was over 25 µM and the TGI (T-47D breast) was over 25 µM. The GI50 (HS 578T breast) was over 16.4 µM, the TGI (HS 578T breast) was over 25 µM and the GI50 (HCT-15 colon) was over 25 µM. It also gave a TGI (HCT-15 colon) of over 25 µM, a GI50 (HCT-116 colon) of over 25 µM and a TGI (HCT-116 colon) of over 25 µM. The GI50 (SK-MEL-5 melanoma) was over 25 µM, the TGI (SK-MEL-5 melanoma) was over 25 µM and the GI50 (MALME-3M melanoma) was over 25 µM. For the same molecule, the TGI (MALME-3M melanoma) was over 25 µM, the GI50 (M14 melanoma) was over 25 µM and the TGI (M14 melanoma) was over 25 µM. It also gave a GI50 (OVCAR-5 ovarian) of over 25 µM, a TGI (OVCAR-5 ovarian) of over 25 µM and a GI50 (CCRF-CEM leukemia) of over 25 µM. The TGI (CCRF-CEM leukemia) was over 25 µM, the GI50 (TK-10 renal) was 19.7 µM and the TGI (TK-10 renal) was over 25 µM. It also gave a GI50 (HCC-2998 colon) of over 25 µM, a TGI (HCC-2998 colon) of over 25 µM and a GI50 (OVCAR-4 ovarian) of over 25 µM. For the same molecule, the TGI (OVCAR-4 ovarian) was over 25 µM, the GI50 (CAKI-1 renal) was over 25 µM and the TGI (CAKI-1 renal) was over 25 µM. It also gave a GI50 (SF-539 CNS) of over 25 µM, a TGI (SF-539 CNS) of over 25 µM and a GI50 (UO-31 renal) of 5.47 µM. For the same molecule, the TGI (UO-31 renal) was over 15.2 µM, the GI50 (NCI-H226 lung) was over 25 µM and the TGI (NCI-H226 lung) was over 25 µM. The GI50 (SR leukemia) was over 25 µM, the TGI (SR leukemia) was over 25 µM and the GI50 (SW-620 colon) was over 25 µM. The TGI (SW-620 colon) was over 25 µM, the GI50 (IGROV1 ovarian) was over 25 µM and the TGI (IGROV1 ovarian) was over 25 µM. The GI50 (HT29 colon) was over 25 µM, the TGI (HT29 colon) was over 25 µM and the GI50 (RPMI-8226 leukemia) was over 25 µM. The TGI (RPMI-8226 leukemia) was over 25 µM, the GI50 (NCI-H522 lung) was over 25 µM and the TGI (NCI-H522 lung) was over 25 µM. It also gave a GI50 (RXF 393 renal) of over 18.7 µM, a TGI (RXF 393 renal) of over 25 µM and a GI50 (DU-145 prostate) of over 25 µM. For the same molecule, the TGI (DU-145 prostate) was over 25 µM, the GI50 (UACC-62 melanoma) was over 25 µM and the TGI (UACC-62 melanoma) was over 25 µM. It also gave a GI50 (HL-60(TB) leukemia) of over 14.1 µM, a TGI (HL-60(TB) leukemia) of over 25 µM and a GI50 (MCF7 breast) of over 25 µM. The TGI (MCF7 breast) was over 25 µM, the GI50 (HOP-62 NSCLC) was over 25 µM and the TGI (HOP-62 NSCLC) was over 25 µM. The GI50 (UACC-257 melanoma) was over 25 µM, the TGI (UACC-257 melanoma) was over 25 µM and the GI50 (A549 NSCLC) was over 25 µM. It also gave a TGI (A549 NSCLC) of over 25 µM, a GI50 (SK-MEL-2 melanoma) of over 25 µM and a TGI (SK-MEL-2 melanoma) of over 25 µM. For the same molecule, the GI50 (786-0 renal) was over 25 µM, the TGI (786-0 renal) was over 25 µM and the GI50 (MOLT-4 leukemia) was over 25 µM. The TGI (MOLT-4 leukemia) was over 25 µM, the GI50 (ACHN renal) was over 25 µM and the TGI (ACHN renal) was over 25 µM. The GI50 (LOX IMVI melanoma) was over 25 µM, the TGI (LOX IMVI melanoma) was over 25 µM and the GI50 (PC-3 prostate) was over 25 µM. The TGI (PC-3 prostate) was over 25 µM, the GI50 (A498 renal) was 6.94 µM and the TGI (A498 renal) was over 25 µM.
